Key:
[1] = system: MV-4-11 cells; experiment: Cell growth inhibition assay (CellTiter-Glo), MV-4-11; assay type: cell-based; conditions: Homo sapiens, MV4-11
Method in brief: (§1)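 Leukemia lines grown in their own media were exposed for 4 days at 37° C. to 3-fold serial dilutions from 10 μM (0.1% DMSO). Viability by CellTiter-Glo ATP luminescence, corrected for background and day-0 plate; IC50 and TGI from four-parameter fit against vehicle (100%) and medium (−100%).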

[2] = system: THP-1 cells; experiment: Cell growth inhibition assay (CellTiter-Glo), THP-1; assay type: cell-based; conditions: Homo sapiens
Method in brief: as §1

[3] = system: K-562 cells; experiment: Cell growth inhibition assay (CellTiter-Glo), K-562; assay type: cell-based, human; conditions: Homo sapiens, K562
Method in brief: as §1

| SMILES | GI50 [1] [nM] | GI50 [2] [nM] | GI50 [3] [nM] |
| --- | --- | --- | --- |
| Cc1nn(C[C@H](O)C(F)(F)F)c2c1[C@@H](c1ccc(Cl)cc1)N(c1cc(C)c3nnc(C)n3c1)C2=O [Example 167, (R)-4-(4-chlorophenyl)-5-(3,8-dimethyl-[1,2,4]triazolo[4,3-a]pyridin-6-yl)-3-methyl-1-((S)-3,3,3-trifluoro-2-hydroxypropyl)-4,5-dihydropyrrolo-[3,4-c]pyrazol-6(1H)-one] | 27.6 | 59.6 | 294 |
| Cc1nn(C(C)C)c2c1C(c1ccc(Cl)cc1F)N(c1cc(C)c3nnc(C)n3c1)C2=O (stereo not drawn) [Example 168, 4-(4-chloro-2-fluorophenyl)-5-(3,8-dimethyl-[1,2,4]triazolo[4,3-a]pyridin-6-yl)-1-isopropyl-3-methyl-4,5-dihydropyrrolo[3,4-c]pyrazol-6(1H)-one] | 24.1 | 35.5 | 105 |
| Cc1cc(N2C(=O)c3nn(C(C)C)c(C)c3C2c2ccc(Cl)cc2F)cn2c(C)nnc12 (stereo not drawn) [Example 169, 4-(4-chloro-2-fluorophenyl)-5-(3,8-dimethyl-[1,2,4]triazolo[4,3-a]pyridin-6-yl)-2-isopropyl-3-methyl-4,5-dihydropyrrolo[3,4-c]pyrazol-6(2H)-one] | 31.1 | 50.5 | 276 |
| CCn1nc(C)c2c1C(=O)N(c1cc(C)c(=O)n(C)c1)C2c1ccc(Cl)cc1F (stereo not drawn) [Example 170, 4-(4-chloro-2-fluorophenyl)-5-(1,5-dimethyl-6-oxo-1,6-dihydropyridin-3-yl)-1-ethyl-3-methyl-4,5-dihydropyrrolo-[3,4-c]pyrazol-6(1H)-one] | 7.66 | 13.4 | 48.5 |
| CCn1nc2c(c1C)C(c1ccc(Cl)cc1F)N(c1cc(C)c(=O)n(C)c1)C2=O (stereo not drawn) [Example 171, 4-(4-chloro-2-fluorophenyl)-5-(1,5-dimethyl-6-oxo-1,6-dihydropyridin-3-yl)-2-ethyl-3-methyl-4,5-dihydropyrrolo[3,4-c]pyrazol-6(2H)-one] | 93.8 | 118 | 442 |
| Cc1n[nH]c2c1C(c1ccc(F)cc1F)N(c1cc(C)c3nnc(C)n3c1)C2=O (stereo not drawn) [Example 172, 4-(2,4-difluorophenyl)-5-(3,8-dimethyl-[1,2,4]triazolo[4,3-a]pyridin-6-yl)-3-methyl-4,5-dihydropyrrolo[3,4-c]pyrazol-6(2H)-one] | 176 | 254 | 1080 |
| COc1ncccc1-n1nc(C)c2c1C(=O)N(c1cc(C)c3nnc(C)n3c1)C2c1ccc(F)cc1F (stereo not drawn) [Example 173, 4-(2,4-difluorophenyl)-5-(3,8-dimethyl-[1,2,4]triazolo[4,3-a]pyridin-6-yl)-1-(2-methoxypyridin-3-yl)-3-methyl-4,5-dihydropyrrolo-[3,4-c]pyrazol-6(1H)-one] | 57.1 | 91.6 | 328 |
| Cc1nn(C(C)C)c2c1C(c1ccc(F)cc1F)N(c1cc(C)c3nnc(C)n3c1)C2=O (stereo not drawn) [Example 174, 4-(2,4-difluorophenyl)-5-(3,8-dimethyl-[1,2,4]triazolo[4,3-a]pyridin-6-yl)-1-isopropyl-3-methyl-4,5-dihydropyrrolo[3,4-c]pyrazol-6(1H)-one] | 26.7 | 43.8 | 158 |
| Cc1cc(N2C(=O)c3nn(C(C)C)c(C)c3C2c2ccc(F)cc2F)cn2c(C)nnc12 (stereo not drawn) [Example 175, 4-(2,4-difluorophenyl)-5-(3,8-dimethyl-[1,2,4]triazolo[4,3-a]pyridin-6-yl)-2-isopropyl-3-methyl-4,5-dihydropyrrolo-[3,4-c]pyrazol-6(2H)-one] | 42.2 | 66.2 | 192 |
| Cc1nn(C2CC2)c2c1C(c1ccc(F)cc1F)N(c1cc(C)c3nnc(C)n3c1)C2=O (stereo not drawn) [Example 176, 1-cyclopropyl-4-(2,4-difluorophenyl)-5-(3,8-dimethyl-[1,2,4]triazolo[4,3-a]pyridin-6-yl)-3-methyl-4,5-dihydropyrrolo-[3,4-c]pyrazol-6(1H)-one] | 30.3 | 55.6 | 145 |
| COc1ccccc1-n1nc(C)c2c1C(=O)N(c1cc(C)c3nnc(C)n3c1)C2c1ccc(F)cc1F (stereo not drawn) [Example 177, 4-(2,4-difluorophenyl)-5-(3,8-dimethyl-[1,2,4]triazolo[4,3-a]pyridin-6-yl)-1-(2-methoxyphenyl)-3-methyl-4,5-dihydropyrrolo-[3,4-c]pyrazol-6(1H)-one] | 67.5 | 64.4 | 331 |
| Cc1nn(C2CC2)c2c1C(c1ccc(Cl)cc1F)N(c1cc(C)c3nnc(C)n3c1)C2=O (stereo not drawn) [Example 178, 4-(4-chloro-2-fluorophenyl)-1-cyclopropyl-5-(3,8-dimethyl-[1,2,4]triazolo[4,3-a]pyridin-6-yl)-3-methyl-4,5-dihydropyrrolo[3,4-c]pyrazol-6(1H)-one] | 28.2 | 42.5 | 137 |
| Cc1nn(C2CC2)c2c1C(c1ccc(Cl)cc1F)N(c1cc(C)c(=O)n(C)c1)C2=O (stereo not drawn) [Example 179, 4-(4-chloro-2-fluorophenyl)-1-cyclopropyl-5-(1,5-dimethyl-6-oxo-1,6-dihydropyridin-3-yl)-3-methyl-4,5-dihydropyrrolo[3,4-c]pyrazol-6(1H)-one] | 77.4 | 112 | 372 |
| Cc1nn(C(C)C)c2c1C(c1ccc(Cl)cc1F)N(c1cc(C)c(=O)n(C)c1)C2=O (stereo not drawn) [Example 180, 4-(4-chloro-2-fluorophenyl)-5-(1,5-dimethyl-6-oxo-1,6-dihydropyridin-3-yl)-1-isopropyl-3-methyl-4,5-dihydropyrrolo[3,4-c]pyrazol-6(1H)-one] | 68 | 81.4 | 266 |
| CCn1nc(C)c2c1C(=O)N(c1cc(C)c3nnc(C)n3c1)C2c1ccc(F)cc1F (stereo not drawn) [Example 181, 4-(2,4-difluorophenyl)-5-(3,8-dimethyl-[1,2,4]triazolo[4,3-a]pyridin-6-yl)-1-ethyl-3-methyl-4,5-dihydropyrrolo[3,4-c]pyrazol-6(1H)-one] | 47.1 | 51.9 | 160 |
| CCn1nc2c(c1C)C(c1ccc(F)cc1F)N(c1cc(C)c3nnc(C)n3c1)C2=O (stereo not drawn) [Example 182, 4-(2,4-difluorophenyl)-5-(3,8-dimethyl-[1,2,4]triazolo[4,3-a]pyridin-6-yl)-2-ethyl-3-methyl-4,5-dihydropyrrolo-[3,4-c]pyrazol-6(2H)-one] | 63.2 | 87.5 | 280 |
| Cc1n[nH]c2c1C(c1ccc(Cl)cc1F)N(c1cc(C)c3nnc(C)n3c1)C2=O (stereo not drawn) [Example 183, 4-(4-chloro-2-fluorophenyl)-5-(3,8-dimethyl-[1,2,4]triazolo[4,3-a]pyridin-6-yl)-3-methyl-4,5-dihydropyrrolo-[3,4-c]pyrazol-6(2H)-one] | 76.1 | 135 | 659 |
| COc1ncccc1-n1nc(C)c2c1C(=O)N(c1cc(C)c3nnc(C)n3c1)C2c1ccc(Cl)cc1F (stereo not drawn) [Example 184, 4-(4-chloro-2-fluorophenyl)-5-(3,8-dimethyl-[1,2,4]triazolo[4,3-a]pyridin-6-yl)-1-(2-methoxypyridin-3-yl)-3-methyl-4,5-dihydropyrrolo-[3,4-c]pyrazol-6(1H)-one] | 59.6 | 131 | 394 |
| CCn1nc(C)c2c1C(=O)N(c1cc(C)c3nnc(C)n3c1)C2c1ccc(Cl)cc1F (stereo not drawn) [Example 185, 4-(4-chloro-2-fluorophenyl)-5-(3,8-dimethyl-[1,2,4]triazolo[4,3-a]pyridin-6-yl)-1-ethyl-3-methyl-4,5-dihydropyrrolo-[3,4-c]pyrazol-6(1H)-one] | 24.2 | 36.8 | 136 |
| CCn1nc2c(c1C)C(c1ccc(Cl)cc1F)N(c1cc(C)c3nnc(C)n3c1)C2=O (stereo not drawn) [Example 186, 4-(4-chloro-2-fluorophenyl)-5-(3,8-dimethyl-[1,2,4]triazolo[4,3-a]pyridin-6-yl)-2-ethyl-3-methyl-4,5-dihydropyrrolo-[3,4-c]pyrazol-6(2H)-one] | 44.1 | 61.5 | 208 |
| COc1ccccc1-n1nc(C)c2c1C(=O)N(c1cc(C)c3nnc(C)n3c1)C2c1ccc(Cl)cc1F (stereo not drawn) [Example 187, 4-(4-chloro-2-fluorophenyl)-5-(3,8-dimethyl-[1,2,4]triazolo[4,3-a]pyridin-6-yl)-1-(2-methoxyphenyl)-3-methyl-4,5-dihydropyrrolo-[3,4-c]pyrazol-6(1H)-one] | 144 | 168 | 655 |
| Cc1nn(C(C)C)c2c1[C@@H](c1ccc(Cl)cc1F)N(c1cc(C)c3nnc(C)n3c1)C2=O [Example 189, (S)-4-(4-chloro-2-fluorophenyl)-5-(3,8-dimethyl-[1,2,4]triazolo[4,3-a]pyridin-6-yl)-1-isopropyl-3-methyl-4,5-dihydropyrrolo[3,4-c]pyrazol-6(1H)-one] | 14.1 | 11.3 | 88.5 |
| COc1ncccc1-n1nc2c(c1C)C(c1ccc(F)cc1F)N(c1cc(C)c3nnc(C)n3c1)C2=O (stereo not drawn) [Example 193, 4-(2,4-difluorophenyl)-5-(3,8-dimethyl-[1,2,4]triazolo[4,3-a]pyridin-6-yl)-2-(2-methoxypyridin-3-yl)-3-methyl-4,5-dihydropyrrolo-[3,4-c]pyrazol-6(2H)-one] | 58 | 66.2 | 202 |
| COc1ncccc1-n1nc2c(c1C)C(c1ccc(Cl)cc1F)N(c1cc(C)c3nnc(C)n3c1)C2=O (stereo not drawn) [Example 194, 4-(4-chloro-2-fluorophenyl)-5-(3,8-dimethyl-[1,2,4]triazolo[4,3-a]pyridin-6-yl)-2-(2-methoxypyridin-3-yl)-3-methyl-4,5-dihydropyrrolo-[3,4-c]pyrazol-6(2H)-one] | 48.6 | 73.2 | 245 |
